Publication PMC10564737, “Structure-based design of a phosphotyrosine-masked covalent ligand targeting the E3 ligase SOCS2” (Nature Communications, 2023)
Values joined by “and” are separate entries in the source; they are usually repeats but may differ in a detail not shown here. Equal entries are not always repeated. Where two headings read alike, the source gives them in different places.

Tests used:
K562 cells = assay: cells; type: cell-based
Description: Supplementary Figure 10: GSH kinetic study of compound MN551 in GSH stability assay. A and B.
A plot of unmodified MN551 v/s time. The starting concentrations of MN551 were 1 and 10 µM in A and B respectively. C. Reactivity of MN551 measured against Afatinib and Ibrutinib
Supplementary Figure 11: Cell viability assay to assess cytotoxicity of MN714. (EC50 reported as mean±SEM, technical replicates=3).
(1 picture or pasted object on this page, not shown here)

[1] = target: T1, HiBiT-SOCS2 fusion in HeLa cells (Homo sapiens, UniProt O14508); assay: Split-NanoLuc CETSA, permeabilised cell format; type: cell-based
T1 construct: encoding SOCS2 (32–198) in pBiT3.1-N expression vector; expressed in transfected cells; host or cells: HeLa
T1 sequence (Q15370 whole entry, one chain of several, further chain, the tested form may be a part): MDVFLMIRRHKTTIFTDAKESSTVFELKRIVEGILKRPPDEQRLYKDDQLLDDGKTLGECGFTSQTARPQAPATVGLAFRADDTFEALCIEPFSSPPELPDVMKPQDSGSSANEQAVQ
T1 sequence (Q15369 whole entry, one chain of several, further chain, the tested form may be a part): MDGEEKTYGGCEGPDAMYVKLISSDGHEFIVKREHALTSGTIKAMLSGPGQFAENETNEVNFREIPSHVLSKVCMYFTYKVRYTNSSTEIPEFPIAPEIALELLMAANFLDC
Description: One of the challenges with small-molecule binders displaying on-target activity with recombinant proteins, is to translate their utility to a cellular context. […] One of the advantages of CETSA is that target engagement can be monitored without the need for the development of a cell-permeable tracer molecule.
To test the cellular activity of MN551, we treated HeLa cells with 50 μM MN551 for 20 h and performed CETSA in a live-cell mode. We observed a small Tagg shift of 2 °C in live mode, which increased to 3–4 °C Tagg shift in the permeabilised format (Fig. 4d). We postulate that this observation could likely be a result of the low cellular permeability of MN551 owing to its negatively charged phosphate group.
N-terminal HiBiT-SOCS2 fusion was generated by encoding SOCS2 (32–198) in pBiT3.1-N expression vector (Promega). The transfection and target engagement assay were performed by modifying a NanoLuc target engagement protocol (Promega) with some small modifications. Briefly, HiBiT-SOCS2 fusion construct was transfected into HeLa cells using FuGENE HD (Promega) according to the manufacturer’s protocol. HiBiT-SOCS2 fusion construct was diluted into Transfection Carrier DNA (Promega) at a mass ratio of 1:100 or 1:10 for permeabilised and live-cell CETSA respectively. FuGENE HD was added at a ratio of 1:3 (μg DNA: μL FuGENE HD). 1 part (vol) of FuGENE HD complexes thus formed were combined with 20 parts (vol) of HeLa cells suspended at a density of 2 × 10^5 cells/mL, followed by incubation in a humidified, 37 °C + 5% CO2 incubator. After 20 h of incubation HeLa cells were detached and resuspended at a density of 2.5 × 10^5 cells/mL in Opti-MEM media without serum or phenol red but supplemented with protease inhibitor cocktail (Roche). […] Luminescence was recorded with GloMax Discover Microplate Reader (Promega). To generate apparent Tagg curves, the data is first converted to percent stabilized by relating the observed luminescence to the luminescence of the lowest temperature (40 °C) for that given sample. […]

SOCS2 = target: T2, SOCS2 (Homo sapiens, UniProt O14508); assay: SOCS2 pulldown with biotinylated GHR_pY595 peptide from K562 cell lysates preincubated with compound; type: biochemical
T2 construct: endogenous SOCS2 from K562 lysates; endogenous in cells; host or cells: K562
T2 sequence (O14508 1-198): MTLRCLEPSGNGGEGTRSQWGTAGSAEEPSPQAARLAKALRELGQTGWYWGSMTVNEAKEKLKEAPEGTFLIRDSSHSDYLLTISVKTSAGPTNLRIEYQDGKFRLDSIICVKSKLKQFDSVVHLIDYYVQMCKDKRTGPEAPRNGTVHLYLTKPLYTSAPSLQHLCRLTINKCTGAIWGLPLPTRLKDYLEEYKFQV
Description: Pulldown of cellular SOCS2 was abrogated when K562 cells were pre-treated for 6 h with MN714 prior to cell lysis, further evidencing the inhibitor cell permeability and specific target engagement (Fig. 6c).
K562 cells were treated with either DMSO or 10 µM MN714 for 6 h before being lysed. For experiments with MN551, DMSO-treated lysate was used. DMSO-treated K562 lysate (1 mg/ml) was pre-cleared using control agarose beads (Pierce Control Agarose Resin, 26150) which were washed thrice using 50 mM Tris pH 7.4, 150 mM NaCl buffer. […] Unbound peptide was washed off through 3× cycles of buffer wash and spin. Beads were resuspended to a total volume of 100 µl per IP sample. 100 µl beads with immobilized peptides was added to the MN551 lysate tubes. Samples were incubated for 40 min at room temperature. Samples were spun and unbound supernatant was removed. Beads were washed 3× with 0.05% NP40, 50 mM Tris pH 7.4, 150 mM NaCl buffer before being resuspended in 35 µl 1× LDS. Samples were heated for 10 min at 95 °C after which the elute was transferred to a fresh tube. 20 µl of each sample was analyzed by Western Blot (4-12% Bis-Tris gel 180 V, 60 mins) before blotting for SOCS2 (ab109245, 1:1000 dilution) overnight at 4 °C. Uncropped blot images collected with ChemiDoc Touch imaging system (BioRad) operated by Image Lab (v2.4.0.03) and antibody validation provided in Source Data. […]

Row | Structure (SMILES) | EC50 (K562 cells; Homo sapiens, K562 24hrs, read-out: cell viability EC50) [µM] | concentration up to which no significant cytotoxicity was observed (K562 cells; K562 cells) [nM] | EC50 ([1]; MN551 CETSA dose response, Mean, read-out: EC50) [µM] | EC50 ([1]; MN551 CETSA dose response, single replicates, read-out: EC50, individual replicates n1-n2) | EC50 ([1]; permeabilised CETSA, 1 hr, mean ± SEM, n = 2, read-out: EC50 of Tagg shift) [µM] | IC50 (SOCS2; K562 cell lysates, mean ± SEM, technical replicates = 2, read-out: IC50 of reduction of SOCS2 pulled down with biotinylated GHR pY595) [µM] | IC50 (SOCS2; K562 lysates, version shown in the peer review file, read-out: apparent IC50 of blockade of SOCS2 pull-down) [µM]
1 | CC(C)(C)C(=O)OCOP(=O)(OCOC(=O)C(C)(C)C)Oc1ccc(C[C@H](NC(=O)Cc2ccc(F)cc2)C(=O)NCc2cccc(NC(=O)CCl)c2)cc1 [MN714] | 11.8 | 3000 to 10000 |  |  |  |  | 
2 | O=C(CCl)Nc1cccc(CNC(=O)[C@H](Cc2ccc(OP(=O)(O)O)cc2)NC(=O)Cc2ccc(F)cc2)c1 [MN551] |  |  | 1.01 | 0.755 µM and 1.26 µM | 1 ± 0.25 | 5.9 ± 2.6 | 9
